The text below walks through data of US20230097753A1, “ALPHA-HYDROXYLATED FATTY-ACID METABOLITES, MEDICAL USES AND USE AS BIOMARKERS” (UNIVERSITAT DE LES ILLES BALEARS, priority 2020, published 2023).

In series [1] the test system is HEK293T cells. The series is described as follows: Metabolic conversion and uptake of 2-hydroxylated fatty acids in HEK293T cell cultures. The format is in vitro ADME, human. The note with it: HEK293T; for Formation of the metabolite from its 2-hydroxylated prodrug in the presence of oxythiamine: prodrug 100 μM, 24 h, 10 mM oxythiamine. As for the experimental part: To describe the metabolic conversion of DHA-H to HPA(C21:5 ω-3), as well as the conversion of LA-H to HDA (C17:2 ω-6), ALA-H to HTA ω-3 (C17:3 ω-3), GLA-H to HTA ω-6 (C17:3 ω-6), ARA-H to NTA (C19:4 ω-6), EPA-H to NPA (C19:5 ω-3), HEK293T (Human Embryonic Kidney Cells 293T) cell cultures were employed, which is an embryonic, non-tumoral cell line, widely used in human metabolism studies under physiological conditions.
HEK293T cells were cultured in Dulbecco's Modified Eagle's Medium (DMEM; Dubelcco's Modified Eagle's Medium, Biowest, France), supplemented with 10% FBS (Fetal Bovine Serum; Gibco, Thermo-Fisher), 2 mM L-Gln, 25 mM D(+)-glucose, 1 mM sodium pyruvate, and penicillin/streptomycin. Mouse neuroblastoma N2a cells were maintained in a 1:1 (v:v) mixture of DMEM and Opti-Mem (Gibco, Thermo-Fisher), supplemented with 5% FBS and penicillin/streptomycin. Both cell lines were incubated in an atmosphere of 5% CO2 at 37° C.
HEK293T cells were incubated with DHA-H and DHA at 10, 30 and 100 μM for 24 hours, and at 30 μM for 6, 48 and 72 hours. These cells were also incubated with LA-H, ALA-H, GLA-H, ARA-H and EPA-H at 100 μM for 24 hours. HEK293T cells were also incubated with oxythiamine in the presence of DHA-H under the same conditions, at final oxythiamine concentrations of 1 and 10 mM. The HEK293T cells were separated from the plates by pipettes with cold phosphate buffer saline solution (PBS). Cells were recovered by centrifugation (1000 xg, 10 min at 4° C.) and washed twice with cold PBS before being frozen at −80° C. To analyze DHA-H and DHA levels in the cell culture medium, 90 mm diameter plates were filled with 11 mL of complete cell culture medium containing 30 μM DHA-H or DHA in the presence or absence of attached HEK293T cells (5.10^5 cells/plate). The plates were incubated as described above and 1 ml aliquots of the plates were collected at 0, 6, 24, 48 and 72 hours. Aliquots of the cell culture medium were immediately centrifuged at 1000×g for 10 min at 4° C. to remove any cell suspension and the cell-free aliquots were stored at -20° C.
The cell lysates were subjected to ultrasound pulses (4 cycles, 10 s/cycle, 10 W) before lipid extraction. For brain analysis, the tissue of each animal was homogenized in cold PBS at 1:10 (p:v) in the presence of protease inhibitors (Roche), using a blade homogenizer (Polytron PT3100). Homogenates were ultrasounded, aliquots were made and stored at −80 ° C. Only one aliquot of each sample, containing about 8 mg protein/aliquot, was subjected to lipid extraction. Protein content before lipid extraction was determined by a modified Lowry method (Bio-rad DC Protein Assay).
Margaric acid (C17:0) was added to the samples subjected to lipid extraction as an internal standard and the lipids were extracted with chloroform:methanol (Eggers and Schwudke, 2016). Briefly, 0.75 volumes of the aqueous phase (which already contained the biological sample) were mixed with 2 volumes of chloroform and 1 volume of methanol. This mixture was vortexed for 1 minute and centrifuged at 1000×g for 10 minutes. The lower organic phase was collected and washed with 1 ml of PBS:methanol (1:1,v:v), and the resulting organic phase was dried under argon flow. The film containing the extracted lipids was transmethylated by incubation of the lipid mixture for 90 minutes at 100° C. in 3 ml of methanol:acetyl chloride (10:1, v:v), under an argon atmosphere (Christie, 1993). The resulting fatty acid methyl esters (FAMEs) were extracted with hexane, adding 3 ml of H2O and 1 ml of hexane to the transmethylation reaction, and vortexing the mixture thoroughly. After centrifugation at room temperature (1000×g for 10 min), the upper phase containing the FAMEs was collected and the remaining volume was washed twice with 1 ml of hexane.

In series [2] the test system is A549. Description: IC50 in tumor cell cultures (cell survival, XTT / trypan blue). In kind it is cell-based. The note with it: A549 human lung adenocarcinoma cell line. As for the experimental part: (§1) Cell survival was analyzed in a Barker chamber using trypan blue vital exclusion staining (Scharlab) or by cell proliferation kit II (Roche). Briefly, the cells were seeded in 96-well plates at a density of 3 x 10^3 cells per well 24 h prior to treatment, and then cultured in the presence or absence of compounds of interest at the concentrations and for the times indicated in the figures. After different times, plaque viable cells were determined by the addition of XTT according to the manufacturers instructions. Cells were incubated at 37° C. in 5% CO2 until a constant color was developed and absorbance was recorded at 495 nm using a microplate reader with a reference wavelength of 650 nm (FLUOstar Omega, BMG LABTECH, Germany).
(§2) The anti-tumor activity of the different metabolites described in FIGS. 8 and 9 was determined by direct treatment with these molecules (HDA or C17:2 ω-6, HTA ω-3 or C17:3 ω-3, HTA ω-6 or C17:3 ω-6, NTA or C19:4 ω-6, NPA or C19:5 ω-3, and HPA or C21:5 ω-3) in tumor cell cultures, on which the IC50 value for each of these compounds was determined (Inhibitory Concentration 50: concentration of study compound that induces death of 50% of the tumor cell population).

Series [3] deals with MIA-PaCa 2. The description is as above. The note with it: Homo sapiens; MIA-PaCa 2 pancreatic cancer cell line. The format is cell-based. How it is done:
as §1, §2

Series [4] concerns SF-295 glioma cells. Description: Cell viability by violet crystal staining, 72 hours. In kind it is cell-based, human. Conditions: SF-295, 72 hours. As for the experimental part:
FIG. 14. Effect of 2OHOA sodium salt, OA and C17:1n-9 sodium salt on cell viability and proliferation of glioma cells. […] Viability was determined by violet crystal staining.
(§3) In order to evaluate the antiproliferative effect of C17:1n-9, its IC50, which corresponds to the amount of a compound needed to reduce cell viability in vitro by 50%, as well as its effect on the regulation of proteins involved in the mechanism of action of 2OHOA, were determined. […] Upon completion of treatment, IC50 was determined by violet crystal staining technique. […] The IC50 of 2OHOA was 1000 μM for non-tumor cells, MRC-5 and astrocytes.

In series [5] the test system is MRC-5 (human fibroblasts). Described as above. The format is cell-based. The note with it: MRC-5 non-tumor cells. How it is done:
FIG. 15. Effect of 2OHOA sodium salt, C17:1n-9 sodium salt, and OA on cell viability and proliferation of non-tumor cells. Non-tumor cell viability curves (A1-A3) MRC-5 (human fibroblasts); and (B1-B3) mouse astrocytes treated with increasing doses of 2OHOA sodium salt (0-1000 μM) (A1 and B1); OA (0-300 μM) (A2 and B2); and C17:1n-9 sodium salt (0-300 μM) (A3 and B3) for 72 hours. Viability was determined by violet crystal staining.
as §3

Series [6] relates to SF-295. Description: Cell survival by trypan blue vital exclusion staining, 2OHOA and oxythiamine. The format is cell-based, human. The note with it: SF-295, 2 mM oxythiamine, 72 hours. How it is done: FIG. 18. Effect of metabolite C17:1n-9 on the action of 2OHOA. […] Cell viability was determined by vital exclusion staining with trypan blue.
(§4) To study whether the metabolite C17:1n-9 can participate in the action of 2OHOA, the effect of pre-incubation with oxythiamine on cell survival and 2OHOA-regulated proteins was studied. To do this, the cell survival of different glioma and non-tumor cell lines treated with 2OHOA (400 μM, 72 hours) and pre-incubated or not with 2 mM […] (90 minutes) was analyzed by counting the cells with the vital exclusion stain with trypan blue. In addition, Western-blot 2OHOA-modulated proteins were studied. In glioma cells, a significant decrease in cell survival was observed after incubation with 2 mM oxythiamine for 72 hours.

Series [7] relates to BIP, CHOP, cJun phosphorylation, phosphorylation of Akt, cyclin D3. The series is described as follows: Western Blot of proliferation and death markers in glioma and non-tumor cell lines. In kind it is cell-based. The note with it: glioma cells, oxythiamine 2 mM, 72h. As for the experimental part:
FIG. 16. Analysis of the effect of different fatty acids on markers of proliferation and death in different cell lines.
as §4

SMILES strings stand for the structures.

For the compound `CC/C=C\C/C=C\C/C=C\C/C=C\C/C=C\C/C=C\CCC(=O)O` [DHA, docosahexaenoic acid, reference compound], the “Levels in the culture medium in the presence of cell culture (uptake)” value in series [1] (30 μM, up to 72 h) was “decreased significantly at 48 and 72 h”.

In general, IC50 refers to the concentration that inhibits the measured activity by half. Low readings indicate inhibition by little substance, high ones a need for much substance. For the compound `CCCCC/C=C\C/C=C\CCCCCCC(=O)O` [HDA, (8Z,11Z)-heptadeca-8,11-dienoic acid], the 50% inhibitory concentration (IC50) in series [2] was 159 ± 10 µM; in series [3] it was 234 ± 18 µM. Besides, the “Formation of the metabolite from its 2-hydroxylated prodrug in the presence of oxythiamine” value (“Formation of the metabolite” below) in series [1] is on record as “inhibited”.

`CC/C=C\C/C=C\C/C=C\CCCCCCC(=O)O` [HTA n-3, (8Z,11Z,14Z)-heptadeca-8,11,14-trienoic acid]: the IC50 worked out at 166 ± 30 µM in series [2] and 216 ± 24 µM in series [3]. Besides, in series [1], the “Formation of the metabolite” value is reported as “inhibited”.

`CCCCC/C=C\C/C=C\C/C=C\CCCC(=O)O` [HTA n-6, (5Z,8Z,11Z)-heptadeca-5,8,11-trienoic acid]: the 50% inhibitory concentration (IC50) in series [2] was 212 ± 48 µM; in series [3] it was 95 ± 31 µM. In addition, the “Formation of the metabolite” value in series [1] is on record as “inhibited”.

With `CC/C=C\C/C=C\C/C=C\C/C=C\C/C=C\CCC(=O)O` [NPA, (4Z,7Z,10Z,13Z,16Z)-nonadeca-4,7,10,13,16-pentaenoic acid], the IC50 in series [2] was determined as 143 ± 39 µM; in series [3], 91 ± 18 µM. Also, the “Formation of the metabolite” value in series [1] is on record as “inhibited”.

Take `CCCCC/C=C\C/C=C\C/C=C\C/C=C\CCC(=O)O` [NTA, (4Z,7Z,10Z,13Z)-nonadeca-4,7,10,13-tetraenoic acid]: the results for the IC50 in series [2] and in series [3] were 216 ± 3 µM and 62 ± 2 µM, respectively. Also, the “Formation of the metabolite” value in series [1] is recorded as “inhibited”.

On to `CCCCCCCC/C=C\CCCCCCCC(=O)[O-].[Na+]` [OA, reference compound], for which the IC50 in series [4] is 256 ± 5.79 µM; in series [5] it was 236 ± 6.73 µM.

For `Cc1ncc(C[n+]2csc(CCO)c2C)c(=O)[nH]1` [oxythiamine, reference compound], in series [6], the Cell death was 17.35±0.63%. For the same compound, the “Effect on signaling proteins (Western Blot)” value in series [7] is given as “in the same sense as 2OHOA, although milder”. Besides, the figures for the “Inhibition of the increase in HPA levels from DHA-H” value in series [1] (oxythiamine 1 mM) and in series [1] (oxythiamine 10 mM) were “partial inhibition” and “almost total”, respectively.
